Reference: US20180116224A1, “PESTICIDAL COMPOSITIONS AND RELATED METHODS” (priority 2015, published 2018)

Tested on: green peach aphid (Myzus persicae)
Assay: pesticidal activity against green peach aphid on cabbage plants after soil treatment
Assay type: in vivo
Details: for number of live GPA aphids: 6.25 ppm loading, no soil conditioner
Method: Each tested compositions was prepared by mixing a predetermined amount of the CLOSER® SC insecticide (a sulfoxaflor concentrate having a sulfoxaflor concentration of 240 g/L) with a predetermined amount of the organic soil conditioner ACCELL®-STR in an aqueous medium.
The compositions containing different amounts of sulfoxaflor and the organic soil conditioner ACCELL®-STR were prepared as shown in TABLE 1. For example, the “Sulfoxaflor at 6.25 ppm” composition contained about 0.003% weight of sulfoxaflor based on total weight of the composition (i.e., 6.25 ppm of sulfoxaflor per one gram of final soil mixture). “Sulfoxaflor at 6.25 ppm+ACCELL®-STR at 384 ppm” composition contained about 0.003% weight of sulfoxaflor based on total weight of the composition (i.e., 6.25 ppm of sulfoxaflor per one gram of final soil mixture), and about 0.225% weight of the organic soil conditioner ACCELL®-STR based on total weight of the composition (i.e., 384 ppm per one gram of the final soil mixture; 1500 ppm per one gram of the total soil liquid).
The imidacloprid pesticide PROVADO® 1.6 from Bayer CropScience LP (North Carolina, USA) was used as a standard commercial pesticidal composition for aphid control. The imidacloprid pesticide PROVADO® 1.6 was tested at the same loading as that used for the sulfoxaflor, which was 6.25 ppm per gram of final soil mixture.
In this EXAMPLE 4, water was tested as a control composition. Furthermore, an aqueous solution of the organic soil conditioner ACCELL®-STR was tested.
Cabbage plants (Brassica oleracea capitata L) of uniform size (two new leaf stage) infested with green peach aphids (Myzus persicae) (“GPA”) were used as the study models according to the following procedure:
Cabbage seeds were planted in 3-inch pots containing a peat-based METRO MIX 360® potting soil available from SUN GRO® Horticulture Canada, Ltd. The seeds were propagated in greenhouse zone G4, located in the R&D building of Dow AgroSciences (Indianapolis, Ind., USA), at 26° C. with a relative humidity of 53%. Natural light was supplemented with 1,000-watt metal halide overhead lamps with an average illumination of about 500 μE/m^2.s photosynthetic active radiation for 16 consecutive hours each day.
Each of the 1-ounce clear cups was filled with about 30 grams of the inoculated Midwest field soil having the components as shown in TABLE 2. […] The soil moisture of the Midwest field soil was about 15% as measured by Mettler LJ16 Moisture Analyzer (15 minutes and 100° C.).
The Midwest field soil in each selected 1-ounce cup was treated with about 9 mL of the selected composition using a 10 mL pipette. […]
The pesticidal activity against GPA was determined three days after infestation, by counting the number of live GPA aphids present on each cabbage plant. […]

[1] = dose rate 6.25 ppm sulfoxaflor alone

C[C@@H](c1ccc(C(F)(F)F)nc1)[S@](C)(=O)=NC#N (racemic) [Sulfoxaflor, [methyl(oxo){1-[6-(trifluoromethyl)-3-pyridyl]ethyl}-λ^6-sulfanylidene]cyanamide]
number of live GPA aphids (DAT of 21 days, counted three days after infestation): about 10 | number of live GPA aphids (DAT of 28 days): about 90 | % Control at DAT of 21 days [1]: 91.19% | % Control at DAT of 28 days [1]: 0%
